{
  "source": "patent US20260070891A1",
  "about": "“METHOD FOR PRODUCING QUINOXALINE DERIVATIVE” (Kyowa Kirin Co., Ltd., priority 2022, published 2026)",
  "key": {"[1]": {"test": "Crystal form stability on standing at room temperature, rechecked by powder X-ray diffraction (Test Example 1)", "assay_type": "physicochemical", "details": "allowed to stand for 8 weeks at room temperature", "method": "In addition, the measurement of powder X-ray diffraction (reflection method) was performed by pulverizing a sample in an agate mortar, taking an appropriate amount of the sample into a sample plate, and measuring a diffraction peak such that a diffraction angle 20 includes a range of 5° to 40°. The X-ray to be radiated was a copper Ka ray (CuKα ray), and the tube voltage was set to 50 kV, the tube current was set to 1 mA, and the step time was set to 120 seconds. The thermal analysis was performed by taking 2 mg of the sample into an aluminum pan and measuring differential scanning calorimetry (DSC) under a condition of a heating rate of 5° C./min. For the measurement of powder X-ray diffraction (reflection method), D8 DISCOVER manufactured by Bruker AXS was used.\nThe type II crystal of (R)—N-(3-{2,2,2-trifluoro-1-[6-(2-methyl-2H-1,2,3-triazol-4-yl)pyridin-3-yl]ethoxy}quinoxalin-2-yl) propane-1-sulfonamide obtained in step 3 of Example 1 was allowed to stand for 8 weeks at room temperature."}, "[2]": {"test": "Long-term storage stability of crystal at 25° C. and 60% RH (Test Example 1)", "assay_type": "physicochemical", "details": "25° C. and 60% RH for 5 years"}},
  "data": [
    {"compound": "CCCS(=O)(=O)Nc1nc2ccccc2nc1O[C@H](c1ccc(-c2cnn(C)n2)nc1)C(F)(F)F", "note": "[type II crystal, (R)—N-(3-{2,2,2-trifluoro-1-[6-(2-methyl-2H-1,2,3-triazol-4-yl)pyridin-3-yl]ethoxy}quinoxalin-2-yl) propane-1-sulfonamide]", "values": [
      {"measurement": "crystal form after standing (powder X-ray diffraction)", "setting": "[1]", "result": "transition to a mixed crystal of the type III crystal and the type II crystal"}
    ]},
    {"compound": "CCCS(=O)(=O)Nc1nc2ccccc2nc1O[C@H](c1ccc(-c2cnn(C)n2)nc1)C(F)(F)F", "note": "[type III crystal, (R)—N-(3-{2,2,2-trifluoro-1-[6-(2-methyl-2H-1,2,3-triazol-4-yl)pyridin-3-yl]ethoxy}quinoxalin-2-yl)propane-1-sulfonamide]", "values": [
      {"measurement": "stability (properties, related substances, optical isomers, content, powder X-ray diffraction pattern)", "setting": "[2]", "result": "no changes in the properties, related substances, optical isomers, content, or powder X-ray diffraction pattern"}
    ]}
  ]
}
